For experiment [1], the system named is KP1004 KPC-2. Briefly: Biapenem potentiation (MPC@1), strain KP1004 KPC-2. The conditions noted are these: minimum BLI concentration inhibiting growth with biapenem 1 μg/mL; tested up to 40 μg/mL. Format: cell-based. How it is done: (§1) Biapenem was present in the test medium at 1 μg/mL. […] Table 3 summarizes the BLI potency of biapenem potentiation (MPC@1) for two strains overexpressing class A (KPC) and class D (OXA-48) carbapenemases. Biapenem MIC for each strain is also shown.

A further experiment concerns KP1086 OXA-48. Briefly: Biapenem potentiation (MPC@1), strain KP1086 OXA-48. Format: cell-based. The conditions noted are these: minimum BLI concentration inhibiting growth with biapenem 1 μg/mL; tested up to 40 μg/mL. How it is done:
as §1

The next experiment has as its system AB1053 OXA-72. The experiment can be described thus: Meropenem potentiation (MPC@8), strain AB1053 OXA-72. It is filed as cell-based, Acinetobacter baumannii. The conditions noted are these: minimum BLI concentration inhibiting growth with meropenem 8 μg/mL; tested up to 20 μg/mL.
The test system of the next experiment is AB1054 OXA-23. Briefly: Meropenem potentiation (MPC@8), strain AB1054 OXA-23. Format: cell-based, Acinetobacter baumannii. The conditions noted are these: minimum BLI concentration inhibiting growth with meropenem 8 μg/mL; tested up to 20 μg/mL.
The target of experiment [2] is T1, purified class A, C and D enzymes (β-lactamases) (Acinetobacter baumannii, UniProt Q9L4P2).
T1 construct: rows headed: Ki (OXA-23, NCF), uM; other: purified OXA-23; nitrocefin (NCF) as reporter substrate
The experiment can be described thus: biochemical. Format: biochemical. The note with it: purified OXA-23; nitrocefin (NCF) as reporter substrate.

The target of experiment [3] is purified class A, C and D enzymes (β-lactamases) (Enterobacter cloacae, UniProt P05364). Briefly: biochemical. Format: biochemical.
For experiment [4], the target named is purified class A, C and D enzymes (β-lactamases) (Escherichia coli, UniProt Q9L5C7). Briefly: biochemical. Format: biochemical. The conditions noted are these: purified CTX-M-14; nitrocefin (NCF) as reporter substrate.
Experiment [5] has as its target purified class A, C and D enzymes (β-lactamases) (Klebsiella pneumoniae, UniProt Q6XEC0). Briefly: biochemical. It is filed as biochemical. The conditions noted are these: purified OXA-48; nitrocefin (NCF) as reporter substrate.
The target in experiment [6] is purified class A, C and D enzymes (β-lactamases) (Klebsiella pneumoniae, UniProt Q9F663). The experiment can be described thus: biochemical. It is filed as biochemical. The conditions noted are these: purified KPC-2; nitrocefin (NCF) as reporter substrate.
Experiment [7] deals with T2, purified class A, C and D enzymes (β-lactamases) (Pseudomonas aeruginosa, UniProt P24735).
T2 construct: rows headed: Ki (Pa-AmpC, NCF), uM; other: purified Pa-AmpC; nitrocefin (NCF) as reporter substrate
Briefly: biochemical. Format: biochemical.

For the next experiment, the system named is ECL1002. Briefly: Aztreonam potentiation (MPC@4), strain ECL1002. The conditions noted are these: minimum BLI concentration inhibiting growth with aztreonam 4 μg/mL; tested up to 40 μg/mL.
A further experiment deals with ec308 SHV-5. Briefly: Aztreonam potentiation (MPC@4), strain ec308 SHV-5. The note with it: minimum BLI concentration inhibiting growth with aztreonam 4 μg/mL; tested up to 40 μg/mL.
The test system of a further experiment is ec302 TEM-10. Briefly: Aztreonam potentiation (MPC@4), strain ec302 TEM-10. The note with it: minimum BLI concentration inhibiting growth with aztreonam 4 μg/mL; tested up to 40 μg/mL.
Experiment [8] deals with KP1004 KPC-2. The experiment can be described thus: Aztreonam potentiation (MPC@4), strain KP1004 KPC-2. The conditions noted are these: minimum BLI concentration inhibiting growth with aztreonam 4 μg/mL; tested up to 40 μg/mL.
A further experiment relates to EC1010 CMY-6. The experiment can be described thus: Aztreonam potentiation (MPC@4), strain EC1010 CMY-6. The conditions noted are these: minimum BLI concentration inhibiting growth with aztreonam 4 μg/mL; tested up to 40 μg/mL.
The subject of the next experiment is KP1010 SHV-12. The experiment can be described thus: Aztreonam potentiation (MPC@4), strain KP1010 SHV-12. The conditions noted are these: minimum BLI concentration inhibiting growth with aztreonam 4 μg/mL; tested up to 40 μg/mL.
In another experiment the test system is KP1009 CTX-M-15. Briefly: Aztreonam potentiation (MPC@4), strain KP1009 CTX-M-15. The note with it: minimum BLI concentration inhibiting growth with aztreonam 4 μg/mL; tested up to 40 μg/mL.
In a further experiment the test system is KP1005 CTX-M-14. Briefly: Tigemonam potentiation (MPC@4), strain KP1005 CTX-M-14. The note with it: minimum BLI concentration inhibiting growth with tigemonam 4 μg/mL; tested up to 40 μg/mL.

T1 sequence (Q9L4P2 whole entry): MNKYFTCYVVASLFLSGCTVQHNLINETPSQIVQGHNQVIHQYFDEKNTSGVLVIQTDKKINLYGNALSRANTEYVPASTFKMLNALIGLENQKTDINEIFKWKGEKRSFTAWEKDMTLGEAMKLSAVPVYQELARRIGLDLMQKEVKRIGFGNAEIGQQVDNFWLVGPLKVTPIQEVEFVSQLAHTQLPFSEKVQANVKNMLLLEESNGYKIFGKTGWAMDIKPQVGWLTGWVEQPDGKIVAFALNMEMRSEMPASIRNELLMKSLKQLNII
Sequence of purified class A, C and D enzymes (β-lactamases) (Enterobacter cloacae, UniProt P05364) (P05364 21-381): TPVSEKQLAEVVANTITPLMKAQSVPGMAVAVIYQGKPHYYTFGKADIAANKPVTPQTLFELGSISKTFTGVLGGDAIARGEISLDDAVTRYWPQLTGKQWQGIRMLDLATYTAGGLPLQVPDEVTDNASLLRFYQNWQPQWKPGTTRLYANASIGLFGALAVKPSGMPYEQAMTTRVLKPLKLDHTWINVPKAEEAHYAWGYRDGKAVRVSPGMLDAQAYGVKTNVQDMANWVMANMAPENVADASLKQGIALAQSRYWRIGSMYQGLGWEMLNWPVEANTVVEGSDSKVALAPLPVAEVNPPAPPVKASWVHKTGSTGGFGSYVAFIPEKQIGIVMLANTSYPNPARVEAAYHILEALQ
Sequence of purified class A, C and D enzymes (β-lactamases) (Escherichia coli, UniProt Q9L5C7) (Q9L5C7 entry or part of it): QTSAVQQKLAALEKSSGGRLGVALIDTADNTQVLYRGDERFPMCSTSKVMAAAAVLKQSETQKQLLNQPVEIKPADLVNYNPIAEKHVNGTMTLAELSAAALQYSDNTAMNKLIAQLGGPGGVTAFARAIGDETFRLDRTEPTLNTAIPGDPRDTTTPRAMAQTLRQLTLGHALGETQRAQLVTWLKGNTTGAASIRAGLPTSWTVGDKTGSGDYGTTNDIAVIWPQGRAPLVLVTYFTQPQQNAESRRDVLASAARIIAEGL
T2 sequence (P24735 whole entry): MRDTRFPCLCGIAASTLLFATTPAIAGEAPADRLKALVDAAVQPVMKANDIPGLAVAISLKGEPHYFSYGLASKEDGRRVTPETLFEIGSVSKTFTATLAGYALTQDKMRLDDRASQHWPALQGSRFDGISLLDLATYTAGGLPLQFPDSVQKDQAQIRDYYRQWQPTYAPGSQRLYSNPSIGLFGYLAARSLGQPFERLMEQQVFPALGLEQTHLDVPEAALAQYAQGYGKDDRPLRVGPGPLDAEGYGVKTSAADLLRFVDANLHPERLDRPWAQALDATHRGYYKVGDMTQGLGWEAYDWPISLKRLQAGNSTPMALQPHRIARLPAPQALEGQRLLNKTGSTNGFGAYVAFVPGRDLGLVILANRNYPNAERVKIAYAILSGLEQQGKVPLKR

As a reminder, the Ki is a measure of affinity in units of concentration, obtained from inhibition or displacement. Lower therefore signals higher affinity. With `O=C([O-])c1c(CSc2nncs2)ccc2c1O[B-](O)(O)CC2.[Na+].[Na+]` [Compound 20, Disodium; 4,4-dihydroxy-8-(1,3,4-thiadiazol-2-ylsulfanylmethyl)-5-oxa-4-boranuidabicyclo[4.4.0]deca-1(6),7,9-triene-7-carboxylate], the “BPM MPC1 KP1004 KPC-2” value in the experiment with KP1004 KPC-2 [1] is reported as “X (X = MPC@1 ≤ 5 μg/mL)”. Also, in the experiment on KP1086 OXA-48, the “BPM MPC1 OXA-48 KP1086” value is on record as “X (X = MPC@1 ≤ 5 μg/mL)”. For the same compound, the “MPM MPC8 AB1053 OXA-72” value in the experiment with AB1053 OXA-72 was “Y (Y = 5 μg/mL < MPC@1 ≤ 20 μg/mL)”. For the same compound, in the experiment with AB1054 OXA-23, the “MPM MPC8 AB1054 OXA-23” value is reported as “Y (Y = 5 μg/mL < MPC@1 ≤ 20 μg/mL)”. Besides, the inhibition constant (Ki) in [2] and in [7] was less than 0.1 µM throughout. Moreover, the “Ki (P99, NCF), uM” value in experiment [3] is given as “X (key: X = Ki ≤ 0.1 μM; Y = 0.1 μM < Ki ≤ 1 μM; Z = Ki > 1 μM)”. Moreover, the “Ki (CTX-M-14, NCF), uM” value in experiment [4] is “X (X = Ki ≤ 0.1 μM)”. The “Ki (OXA-48, NCF), uM” value in experiment [5] is “X (X = Ki ≤ 0.1 μM)”. In experiment [6], the “Ki (KPC-2, NCF), uM” value is “X (X = Ki ≤ 0.1 μM)”. The “AZT MPC4 ECL1002” value in the experiment with ECL1002 is “X (X = MPC@4 ≤ 5 μg/mL)”. Also, in the experiment with ec308 SHV-5, the “AZT MPC4 SHV-5 ec308” value was “X (X = MPC@4 ≤ 5 μg/mL)”. Further, the “AZT MPC4 TEM-10 ec302” value in the experiment with ec302 TEM-10 is recorded as “X (X = MPC@4 ≤ 5 μg/mL)”. In addition, the “AZT MPC4 KPC-2 KP1004” value with KP1004 KPC-2 [8] is “X (X = MPC@4 ≤ 5 μg/mL)”. The “AZT MPC4 CMY-6 EC1010” value in the experiment on EC1010 CMY-6 is listed as “X (X = MPC@4 ≤ 5 μg/mL)”. In addition, in the experiment with KP1010 SHV-12, the “AZT MPC4 SHV-12 KP1010” value is “X (X = MPC@4 ≤ 5 μg/mL)”. The “AZT MPC4 CTX-M-15 KP1009” value in the experiment on KP1009 CTX-M-15 was “X (X = MPC@4 ≤ 5 μg/mL)”. Further, in the experiment with KP1005 CTX-M-14, the “TIG MPC4 CTX-M-14 KP1005” value is “Y (Y = 5 μg/mL < MPC@4 ≤ 20 μg/mL)”.

On to `NCCCSCc1ccc2c(c1C(=O)[O-])O[B-](O)(O)CC2.[Na+].[Na+]` [Compound 21, Disodium; 8-(3-aminopropylsulfanylmethyl)-4,4-dihydroxy-5-oxa-4-boranuidabicyclo[4.4.0]deca-1(6),7,9-triene-7-carboxylate], for which the “BPM MPC1 KP1004 KPC-2” value in the experiment with KP1004 KPC-2 [1] is given as “X (X = MPC@1 ≤ 5 μg/mL)”. Also, the “BPM MPC1 OXA-48 KP1086” value with KP1086 OXA-48 is on record as “X (X = MPC@1 ≤ 5 μg/mL)”. The “MPM MPC8 AB1053 OXA-72” value in the experiment with AB1053 OXA-72 is recorded as “X (X = MPC@1 ≤ 5 μg/mL)”. Moreover, the “MPM MPC8 AB1054 OXA-23” value in the experiment on AB1054 OXA-23 is on record as “X (X = MPC@1 ≤ 5 μg/mL)”. In addition, the Ki in experiment [2] and in [7] was less than 0.1 µM in each case. Further, the “Ki (P99, NCF), uM” value in experiment [3] was “X (key: X = Ki ≤ 0.1 μM; Y = 0.1 μM < Ki ≤ 1 μM; Z = Ki > 1 μM)”. Further, in experiment [4], the “Ki (CTX-M-14, NCF), uM” value is reported as “X (X = Ki ≤ 0.1 μM)”. In addition, the “Ki (OXA-48, NCF), uM” value in experiment [5] is listed as “X (X = Ki ≤ 0.1 μM)”. The “Ki (KPC-2, NCF), uM” value in [6] is listed as “X (X = Ki ≤ 0.1 μM)”. In addition, the “AZT MPC4 ECL1002” value with ECL1002 was “Y (Y = 5 μg/mL < MPC@4 ≤ 20 μg/mL)”. In the experiment on ec308 SHV-5, the “AZT MPC4 SHV-5 ec308” value was “Y (Y = 5 μg/mL < MPC@4 ≤ 20 μg/mL)”. Besides, in the experiment on ec302 TEM-10, the “AZT MPC4 TEM-10 ec302” value is “Y (Y = 5 μg/mL < MPC@4 ≤ 20 μg/mL)”. The “AZT MPC4 KPC-2 KP1004” value in the experiment with KP1004 KPC-2 [8] is given as “X (X = MPC@4 ≤ 5 μg/mL)”. In addition, the “AZT MPC4 CMY-6 EC1010” value with EC1010 CMY-6 was “X (X = MPC@4 ≤ 5 μg/mL)”. For the same compound, the “AZT MPC4 SHV-12 KP1010” value in the experiment on KP1010 SHV-12 is “X (X = MPC@4 ≤ 5 μg/mL)”. In addition, the “AZT MPC4 CTX-M-15 KP1009” value in the experiment on KP1009 CTX-M-15 is “Y (Y = 5 μg/mL < MPC@4 ≤ 20 μg/mL)”. In the experiment with KP1005 CTX-M-14, the “TIG MPC4 CTX-M-14 KP1005” value is recorded as “Z (Z = MPC@4 > 20 μg/mL)”.

For `Nc1nnc(SCc2ccc3c(c2C(=O)[O-])O[B-](O)(O)CC3)s1.[Na+].[Na+]` [Compound 22, Disodium; 8-[(5-amino-1,3,4-thiadiazol-2-yl)sulfanylmethyl]-4,4-dihydroxy-5-oxa-4-boranuidabicyclo[4.4.0]deca-1(6),7,9-triene-7-carboxylate], the “BPM MPC1 KP1004 KPC-2” value with KP1004 KPC-2 [1] is listed as “X (X = MPC@1 ≤ 5 μg/mL)”. Also, the “BPM MPC1 OXA-48 KP1086” value in the experiment on KP1086 OXA-48 was “Y (Y = 5 μg/mL < MPC@1 ≤ 20 μg/mL)”. For the same compound, in the experiment on AB1053 OXA-72, the “MPM MPC8 AB1053 OXA-72” value was “Z (Z = MPC@1 > 20 μg/mL)”. Moreover, the “MPM MPC8 AB1054 OXA-23” value in the experiment on AB1054 OXA-23 is given as “Y (Y = 5 μg/mL < MPC@1 ≤ 20 μg/mL)”. Further, the Ki in [2] and in experiment [7] was less than 0.1 µM each time. Besides, the “Ki (P99, NCF), uM” value in [3] is “X (key: X = Ki ≤ 0.1 μM; Y = 0.1 μM < Ki ≤ 1 μM; Z = Ki > 1 μM)”. Besides, the “Ki (CTX-M-14, NCF), uM” value in experiment [4] was “X (X = Ki ≤ 0.1 μM)”. Further, the “Ki (OXA-48, NCF), uM” value in experiment [5] is on record as “X (X = Ki ≤ 0.1 μM)”. For the same compound, the “Ki (KPC-2, NCF), uM” value in experiment [6] is reported as “X (X = Ki ≤ 0.1 μM)”. Further, the “AZT MPC4 ECL1002” value in the experiment on ECL1002 is recorded as “Y (Y = 5 μg/mL < MPC@4 ≤ 20 μg/mL)”. Further, the “AZT MPC4 SHV-5 ec308” value in the experiment with ec308 SHV-5 is recorded as “Y (Y = 5 μg/mL < MPC@4 ≤ 20 μg/mL)”. In the experiment with ec302 TEM-10, the “AZT MPC4 TEM-10 ec302” value is on record as “X (X = MPC@4 ≤ 5 μg/mL)”. Also, in the experiment with KP1004 KPC-2 [8], the “AZT MPC4 KPC-2 KP1004” value was “X (X = MPC@4 ≤ 5 μg/mL)”. Further, the “AZT MPC4 CMY-6 EC1010” value in the experiment on EC1010 CMY-6 is “X (X = MPC@4 ≤ 5 μg/mL)”. Also, the “AZT MPC4 SHV-12 KP1010” value with KP1010 SHV-12 is on record as “X (X = MPC@4 ≤ 5 μg/mL)”. In the experiment on KP1009 CTX-M-15, the “AZT MPC4 CTX-M-15 KP1009” value is given as “Y (Y = 5 μg/mL < MPC@4 ≤ 20 μg/mL)”. Moreover, the “TIG MPC4 CTX-M-14 KP1005” value in the experiment with KP1005 CTX-M-14 is “Z (Z = MPC@4 > 20 μg/mL)”.

The record behind these values is patent US10618918B2, “Substituted boronic acids as antimicrobials” (priority 2015, dated 2020).
